# Experimental data published in patent US4358602A, “Ebelactones and production thereof” (Zaidan Hojin Biseibutsu Kagaku Kenkyu Kao, priority 1980, dated 1982).
# What was measured:
# [1] = target: esterase preparation obtained from pig liver; assay: Anti-esterase activity assay (modified Huggins and Lapides method); assay type: biochemical; details: substrate p-nitrophenyl acetate, pH 7.0, room temperature, 20 minutes
# Experimental: Firstly, assay of ebelactone for its anti-esterase activity can be made by determining the potency to inhibit esterase according to a modification of the method of C. […] Thus, a commercially available esterase preparation obtained from pig liver (a product of Sigma Co., U.S.A.) is diluted with water to a 1000 folds volume, and the resulting esterase solution (0.025 ml) is admixed with 1 ml of 0.1 M phosphate buffered solution (pH 7.0) containing 0.06% "Triton X-100" (a trade name of an emulsifier consisting of a polyethyleneglycol alkylphenylether, a product of Rohm & Haas Co., U.S.A.) and 0.95 ml of water containing an ebelactone sample to be assayed, and the resulting mixed solution (1.975 ml) is admixed with 0.025 ml of a solution of 40 mM p-nitrophenyl acetate (the substrate) in methanol to start the reaction of p-nitrophenyl acetate with the esterase. After the enzymatic reaction is effected at room temperature for 20 minutes, absorbance (a) at 400 nm of the resulting reaction solution is measured. On the other hand, absorbance (b) at 400 nm of a control reaction solution containing no ebelactone is measured in the same way as above. Percent of inhibition to esterase is calculated according to the following equation:
# Inhibition (%)=(b-a)/b×100
# [2] = target: T1, formylmethionine aminopeptidase prepared from rat liver (Rattus norvegicus, UniProt P13676); assay: Anti-formylmethionine aminopeptidase activity assay; assay type: biochemical; details: rat liver enzyme, substrate N-formylmethionine β-naphthylamide, pH 7.8, 37° C., 25 minutes; read-out: ID50, dose giving 50% inhibition to formylmethionine aminopeptidase (converted)
# T1 construct: Formylmethionineaminopeptidase employed is that prepared from rat liver; from tissue; host or cells: rat liver
# T1 sequence (P13676 1-732): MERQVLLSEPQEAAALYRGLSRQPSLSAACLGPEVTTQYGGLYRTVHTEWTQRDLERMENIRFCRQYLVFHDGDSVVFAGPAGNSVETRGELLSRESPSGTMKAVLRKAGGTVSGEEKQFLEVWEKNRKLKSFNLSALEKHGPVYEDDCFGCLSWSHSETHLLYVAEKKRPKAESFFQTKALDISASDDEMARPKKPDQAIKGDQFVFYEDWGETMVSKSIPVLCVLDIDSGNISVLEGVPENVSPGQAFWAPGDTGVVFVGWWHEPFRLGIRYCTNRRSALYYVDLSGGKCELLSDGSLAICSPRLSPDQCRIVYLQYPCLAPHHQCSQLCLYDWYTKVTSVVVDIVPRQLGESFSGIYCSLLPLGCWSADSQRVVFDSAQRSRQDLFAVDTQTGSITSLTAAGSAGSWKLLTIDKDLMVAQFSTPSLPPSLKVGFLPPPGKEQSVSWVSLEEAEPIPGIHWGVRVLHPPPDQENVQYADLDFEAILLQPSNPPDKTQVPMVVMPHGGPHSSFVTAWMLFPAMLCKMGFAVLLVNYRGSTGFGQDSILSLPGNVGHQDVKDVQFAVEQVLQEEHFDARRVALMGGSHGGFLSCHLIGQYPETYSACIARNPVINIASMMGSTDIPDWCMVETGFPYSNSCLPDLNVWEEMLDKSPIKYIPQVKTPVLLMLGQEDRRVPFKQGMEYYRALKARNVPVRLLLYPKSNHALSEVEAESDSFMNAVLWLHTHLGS
# Experimental: Further, assay of ebelactone for its anti-formylmethionineaminopeptidase can be made according to the following method. Thus, as the substrate solution is employed a solution of N-formylmethionine β-naphthylamide(as the substrate) in methanol containing 5% (w/v) of "Tween" 20 (a trade name of a non-ionic surface-active agent, a product of Atlas Powder Co., U.S.A.). Formylmethionineaminopeptidase employed is that prepared from rat liver. The substrate solution (0.005 ml), 0.5 ml of 0.1 M Tris-hydrochloric acid buffered solution (pH 7.8) and 0.495 ml of water containing an ebelactone sample to be assayed are mixed together to a total volume of […]. The reaction solution so obtained is further admixed with 0.05 ml of the enzyme solution, followed by effecting the enzymatic reaction at 37° C. for 25 minutes. […] After allowing to stand at ambient temperature for 15 minutes, absorbance (a) at 525 nm of the reaction solution is measured. On the other hand, adsorbance (b) at 525 nm of a control reaction solution obtained from the blank test is measured. Percent of inhibition to the formylmethionine aminopeptidase is calculated in a similar way to the above-mentioned method for determination of the potency for inhibition to esterase.
# [3] = system: CDF1 mice immunized with sheep red blood cells (SRBC); assay: Delayed Type Hypersensitivity (D.T.H.) response to SRBC in mice (cell-mediated immunity); assay type: in vivo; details: 24 hours after eliciting injection
# [4] = system: Wister rats, carragheenin-induced footpad swelling; assay: Suppression of rat footpad swelling caused by carragheenin; assay type: in vivo
# Experimental: Tests were made to estimate the suppressive effect of ebelactone and esterastin (U.S. Pat. Nos. 4,189,438 and 4,242,453) on the swelling of rat footpad caused by injection of carragheenin when the test compounds were administered orally and intraperitoneally to the test animal, Wister rats (male, body weight:140 to 150 g). The test compound was dissolved in about 0.5 ml of ethanol with addition of one drop of a non-ionic surface-active agent "Tween" 80, and the test compound solution in ethanol was diluted with an aqueous gum arabi to prepare an aqueous suspension containing the test dose of ebelactone or esterastin. The test sample suspension so prepared was then administered orally or intraperitoneally to the rats. One hour later, 1% aqueous carragheenin was injected subcutaneously to the footpad to bring about inflammation. After the injection of carragheenin, the volume of the footpad was measured twice, namely at the end of 3 hours and at the end of 5 hours from the carragheenin injection. For control test, the ebelactone or esterastin was omitted in the above test. Degree (%) of suppression of swelling was calculated from the measured volumes of the inflammated footpad.
# [5] = intraperitoneal, 30 mg/kg, 3 Hours after carragheenin
# [6] = intraperitoneal, 30 mg/kg, 5 Hours after carragheenin
# [7] = intraperitoneal, all dosages and all times, except 5 hours with 5 mg/kg and 3 hours with 10 mg/kg of ebelactone B
# [8] = oral, 50 mg/kg, 3 Hours after carragheenin
# [9] = oral, 50 mg/kg, 5 Hours after carragheenin
SMILES,"ID50, dose giving 50% inhibition to esterase [1] [µg/mL]",IC50 [2] [nM],"Foodpad thickness ([3]; 0.5 mg/kg oral, control 8.1) [× 0.1 mm]","Degree (%) of suppression of inflammation [4, 5] [%]","Degree (%) of suppression of inflammation [4, 6] [%]","reduction in the degree of swelling as compared to the control test group [4, 7]","Degree (%) of suppression of swelling [4, 8] [%]","Degree (%) of suppression of swelling [4, 9] [%]",further results
"CCC(C)C(O)C(C)C(=O)C(C)C=C(C)CC(C)C1OC(=O)C1C (stereo not drawn) [Ebelactone A, ebelactone A]",0.056,236,12.2,45.9,18.5,significant reduction in the degree of swelling,–,–,–
"CCC(C)C(O)C(C)C(=O)C(C)C=C(C)CC(C)C1OC(=O)C1CC (stereo not drawn) [Ebelactone B, ebelactone B]",0.00035,56.7,14.1,50.6,20.9,significant reduction in the degree of swelling,11.6,7.8,"Foodpad thickness ([3]; 0.781 mg/kg intraperitoneal at immunization, control 7.4): 14.2 × 0.1 mm; Foodpad thickness ([3]; 3.125 mg/kg intraperitoneal at immunization, control 7.4): 13.6 × 0.1 mm; Foodpad thickness ([3]; 12.5 mg/kg intraperitoneal at immunization, control 7.4): 13.3 × 0.1 mm; Foodpad thickness ([3]; 50 mg/kg intraperitoneal at immunization, control 7.4): 12.2 × 0.1 mm; Degree (%) of suppression of inflammation ([4]; intraperitoneal, 5 mg/kg, 3 Hours after carragheenin): 17.1%; Degree (%) of suppression of inflammation ([4]; intraperitoneal, 5 mg/kg, 5 Hours after carragheenin): 8.8%; Degree (%) of suppression of inflammation ([4]; intraperitoneal, 10 mg/kg, 3 Hours after carragheenin): 9.1%; Degree (%) of suppression of inflammation ([4]; intraperitoneal, 10 mg/kg, 5 Hours after carragheenin): 10.0%; Degree (%) of suppression of swelling ([4]; oral, 10 mg/kg, 3 Hours after carragheenin): 11.2%; Degree (%) of suppression of swelling ([4]; oral, 10 mg/kg, 5 Hours after carragheenin): 8.2%; reduction in the degree of swelling as compared to the control test group ([4]; oral, 10 mg/kg, at 3 hours and 5 hours from carragheenin injection): significant reduction in the degree of swelling; reduction in the degree of swelling as compared to the control test group ([4]; oral, 50 mg/kg, at 3 hours from carragheenin injection): significant reduction in the degree of swelling; Degree (%) of suppression of swelling ([4]; oral, 100 mg/kg, 3 Hours after carragheenin): 7.0%; Degree (%) of suppression of swelling ([4]; oral, 100 mg/kg, 5 Hours after carragheenin): 9.6%; reduction in the degree of swelling as compared to the control test group ([4]; oral, 100 mg/kg, at 5 hours from carragheenin injection): significant reduction in the degree of swelling"
"CCCCCC=CCC=CCC(CC1OC(=O)C1CCCCCC)OC(=O)C(CC(N)=O)NC(C)=O (stereo not drawn) [Esterastin, esterastin, reference compound]",–,–,–,31.1,28.1,–,10.3,-3.0,–
